The values below come from patent US20120088665A1, “FUNGICIDAL MIXTURES” (BASF SE, priority 2009, published 2012).

The subject of one series is Phytophthora infestans. The series can be described thus: microbe, parasite or virus in culture. In kind it is cell-based. Conditions: Phytophthora infestans, 168 h, read-out: Observed activity.
The subject of the next series is Botrytis cinerea. The series can be described thus: Activity against the gray mold pathogen Botrytis cinerea in the microtiter test (Botrci). The format is cell-based. The conditions noted are these: Botrytis cinerea, 168 h, read-out: Observed activity.
A further series deals with Septoria tritici. The series can be described thus: Activity against the Septoria leaf spot pathogen Septoria tritici in the microtiter test (Septtr). Conditions: Zymoseptoria tritici, 168 h, single active compound, conc 16 ppm, read-out: Observed activity. The format is cell-based.

`CC1COC(Cn2ncnc2S)(c2ccc(Oc3ccc(Cl)cc3)cc2Cl)O1` (stereo not shown) [I-5, 2-{2-[2-chloro-4-(4-chlorophenoxy)phenyl]-4-methyl-[1,3]dioxolan-2-ylmethyl}-2H-[1,2,4]triazole-3-thiol] came in with a melting point of 73.4 °C. Further, in the series on Phytophthora infestans, the inhibition of growth at 1 ppm is 8%. The inhibition of growth at 4 ppm with Botrytis cinerea (conc 4 ppm) came out at 36%.
The compound `CC1(C)CC/C(=C\c2ccc(Cl)cc2)C1(O)Cn1ncnc1S` (stereo not shown) [I-22, 5-[1-(4-chlorophenyl)meth-(E)-ylidene]-1-(5-mercapto-[1,2,4]triazol-1-ylmethyl)-2,2-dimethylcyclopentanol] came in with a melting point of 176.5 °C. The inhibition of growth at 1 ppm with Phytophthora infestans came out at 6%. Further, the inhibition of growth at 16 ppm in the series with Botrytis cinerea (conc 16 ppm) came out at 8%. Further, the inhibition of growth at 16 ppm with Septoria tritici is 22%.

In general, melting point refers to the temperature, or range, at which the solid turns liquid.
